The structures appear in SMILES notation. Structures can show the parent of a compound that is named as a salt. Where two headings read alike, the source gives them in different places.

As usually defined, the CC50 is the concentration at which the toxic effect on the cells reaches its halfway point. The low end stands for harm at low concentration, the high end for better tolerance by the cells. For orientation: Cmax means the maximum level reached in the sampled fluid or tissue.

One series has as its system HIV-1 strain LAI. Kind of series: Cellular anti-HIV assay (MT4/MTT), wild type. The note with it: MT4 cells, read-out: WT (pEC50) (converted). The class given is cell-based. As to the method: The compounds of the present invention were examined for anti-viral activity in a cellular assay. […] The cellular assay was performed according to the following procedure. HIV- or mock-infected MT4 cells were incubated for five days in the presence of various concentrations of the inhibitor. […] Cell viability is measured by measuring the concentration of MTT, a yellow, water soluble tetrazolium dye that is converted to a purple, water insoluble formazan in the mitochondria of living cells only. Upon solubilization of the resulting formazan crystals with isopropanol, the absorbance of the solution is monitored at 540 nm. The values correlate directly to the number of living cells remaining in the culture at the completion of the five-day incubation. The inhibitory activity of the compound was monitored on the virus-infected cells and was expressed as EC50 and EC90. These values represent the amount of the compound required to protect 50% and 90%, respectively, of the cells from the cytopathogenic effect of the virus. […] The selectivity index (SI) (ratio CC50/EC50) is an indication of the selectivity of the anti-HIV activity of the inhibitor. Wherever results are reported as e.g. pEC50 or pCC50 values, the result is expressed as the negative logarithm of the result expressed as EC50 or CC50 respectively.

The subject of another series is mutant HIV strain A. Kind of series: microbe, parasite or virus in culture. The class given is cell-based. Particulars: for fold resistance Strain A: FR=EC50 (mutant strain)/EC50 (HIV-1 strain LAI); for EC50: Human immunodeficiency virus 1, MT4, read-out: pEC50 Strain A, mutant HIV strain A, MT4 cells (converted). How it is done:
(§1) HIV- or mock-infected MT4 cells were incubated for five days in the presence of various concentrations of the inhibitor. […] Cell viability is measured by measuring the concentration of MTT, a yellow, water soluble tetrazolium dye that is converted to a purple, water insoluble formazan in the mitochondria of living cells only. Upon solubilization of the resulting formazan crystals with isopropanol, the absorbance of the solution is monitored at 540 nm. The values correlate directly to the number of living cells remaining in the culture at the completion of the five-day incubation. The inhibitory activity of the compound was monitored on the virus-infected cells and was expressed as EC50 and EC90. These values represent the amount of the compound required to protect 50% and 90%, respectively, of the cells from the cytopathogenic effect of the virus. […] The selectivity index (SI) (ratio CC50/EC50) is an indication of the selectivity of the anti-HIV activity of the inhibitor. Wherever results are reported as e.g. pEC50 or pCC50 values, the result is expressed as the negative logarithm of the result expressed as EC50 or CC50 respectively.

The subject of the next series is mutant HIV strain B. Kind of series: microbe, parasite or virus in culture. Particulars: for fold resistance Strain B: FR=EC50 (mutant strain)/EC50 (HIV-1 strain LAI); for EC50: Human immunodeficiency virus 1, MT4, read-out: pEC50 Strain B, mutant HIV strain B, MT4 cells (converted). Format: cell-based. As to the method:
as §1

The test system of a further series is mutant HIV strain C. Put plainly: microbe, parasite or virus in culture. Format: cell-based. The note with it: for fold resistance Strain C: FR=EC50 (mutant strain)/EC50 (HIV-1 strain LAI); for EC50: Human immunodeficiency virus 1, MT4, read-out: pEC50 Strain C, mutant HIV strain C, MT4 cells (converted). How it is done:
as §1

The next series has as its system mutant HIV strain D. Put plainly: microbe, parasite or virus in culture. The class given is cell-based. The note with it: for fold resistance Strain D: FR=EC50 (mutant strain)/EC50 (HIV-1 strain LAI); for EC50: Human immunodeficiency virus 1, MT4, read-out: pEC50 Strain D, mutant HIV strain D, MT4 cells (converted). As to the method:
as §1

The subject of a further series is mutant HIV strain E. Kind of series: microbe, parasite or virus in culture. The note with it: for fold resistance Strain E: FR=EC50 (mutant strain)/EC50 (HIV-1 strain LAI); for EC50: Human immunodeficiency virus 1, MT4, read-out: pEC50 Strain E, mutant HIV strain E, MT4 cells (converted). The class given is cell-based. How it is done:
as §1

A further series relates to mutant HIV strain F. Put plainly: microbe, parasite or virus in culture. Format: cell-based. The note with it: for fold resistance Strain F: FR=EC50 (mutant strain)/EC50 (HIV-1 strain LAI); for EC50: Human immunodeficiency virus 1, MT4, read-out: pEC50 Strain F, mutant HIV strain F, MT4 cells (converted). As to the method:
as §1

The nature of series [1]: Toxicity on mock-infected cells (MTT). Format: cell-based. Particulars: human. How it is done: HIV- or mock-infected MT4 cells were incubated for five days in the presence of various concentrations of the inhibitor. At the end of the incubation period, the replicating virus in the control cultures has killed all HIV-infected cells in the absence of any inhibitor. Cell viability is measured by measuring the concentration of MTT, a yellow, water soluble tetrazolium dye that is converted to a purple, water insoluble formazan in the mitochondria of living cells only. Upon solubilization of the resulting formazan crystals with isopropanol, the absorbance of the solution is monitored at 540 nm. The values correlate directly to the number of living cells remaining in the culture at the completion of the five-day incubation. The inhibitory activity of the compound was monitored on the virus-infected cells and was expressed as EC50 and EC90. These values represent the amount of the compound required to protect 50% and 90%, respectively, of the cells from the cytopathogenic effect of the virus. […] The selectivity index (SI) (ratio CC50/EC50) is an indication of the selectivity of the anti-HIV activity of the inhibitor. Wherever results are reported as e.g. pEC50 or pCC50 values, the result is expressed as the negative logarithm of the result expressed as EC50 or CC50 respectively.

The next series in a line: Pharmacokinetics in rats. Particulars: Whistar, rat, blood, 10 mpk, read-out: Cmax. The class given is in vivo, Whistar rats. How it is done: The pharmacokinetic properties of some compounds of formula (I) were tested on rats and dogs. The compounds were evaluated in Whistar rats, source Iffa Credo, weighing approximately 350 g. Before dosing the animals were fasted overnight (approximately 12 h fasting period). The compounds were dissolved in DMSO or PEG 400. The results represented in the table concern the results from the oral or intra-peritoneal dosing of the compounds. Blood was sampled at 30 min, 1 h, 2 h, 3 h, no pre-dose sample was taken. The amount of the compound in the biological sample was determined using LC-MS. In the table below “or” means oral dosing, “ip” means intraperitoneal dosing, “mpk” means mg per kilogram.

Setting [2] is: Human immunodeficiency virus 1, wild type HIV-1 strain LAI.
The mark [3] stands for this setting: ip, ip, DMSO, results normalized to 10 mpk.
Setting [4] is: po, or, DMSO, results normalized to 10 mpk.
[5] abbreviates: po, or, PEG400, results normalized to 10 mpk.

Consider `CNc1nc2ccc(S(=O)(=O)N(CC(C)C)C[C@@H](O)[C@H](Cc3ccccc3)NC(=O)OC3COC4OCCC34)cc2s1` (stereo partly drawn) [Compound 4, {(1S,2R)-1-benzyl-2-hydroxy-3-[isobutyl-(2-methylamino-benzothiazole-6-sulfonyl)-amino]-propyl}-carbamic acid hexahydro-furo[2,3-b]furan-3-yl ester], for which the EC50 in the series on HIV-1 strain LAI (setting [2]) is 0.457 nM; with mutant HIV strain A, 3.63 nM; in the series with mutant HIV strain B, 1.17 nM; in the series on mutant HIV strain C, 1.17 nM; in the series with mutant HIV strain D, 1.17 nM; in the series with mutant HIV strain E, 1.29 nM. Further, the EC50 in the series with mutant HIV strain F was 8.71 nM. Further, the “fold resistance Strain A” value in the series on mutant HIV strain A is listed as 7.9. Besides, in the series on mutant HIV strain B, the “fold resistance Strain B” value came to 2.6. In the series with mutant HIV strain C, the “fold resistance Strain C” value is on record as 2.6. For the same molecule, in the series on mutant HIV strain D, the “fold resistance Strain D” value worked out at 2.6. For the same molecule, the “fold resistance Strain E” value with mutant HIV strain E came out at 2.8. Besides, in the series on mutant HIV strain F, the “fold resistance Strain F” value stood at 19.1. In addition, the CC50 at 5 days in series [1] is greater than 10000 nM. Besides, the Cmax in the series “Pharmacokinetics in rats” (setting [3]) stood at 1670 ng/mL; in the series “Pharmacokinetics in rats” (setting [4]) it was 348 ng/mL; in the series “Pharmacokinetics in rats” (setting [5]) it was 225 ng/mL.

Turning to `Cc1c(F)cccc1C(=O)N[C@@H](Cc1ccccc1)[C@H](O)CN(CC(C)C)S(=O)(=O)c1ccc2nc(N)sc2c1` [Compound 16, N-{(1S,2R)-3-[(2-amino-benzothiazole-6-sulfonyl)-isobutyl-amino]-1-benzyl-2-hydroxypropyl}-3-fluoro-2-methyl-benzamide], the EC50 is 1410 nM in the series on HIV-1 strain LAI (setting [2]); greater than 100000 nM in the series on mutant HIV strain A; greater than 100000 nM in the series on mutant HIV strain B; greater than 100000 nM in the series with mutant HIV strain C; greater than 100000 nM with mutant HIV strain D; greater than 100000 nM in the series on mutant HIV strain E. In addition, in the series on mutant HIV strain F, the EC50 is greater than 100000 nM. Half-maximal cytotoxicity in [1] (CC50 at 5 days) was put at 11200 nM.

For the molecule `Cc1cc(CN)cc(C)c1OCC(=O)N[C@@H](Cc1ccccc1)[C@H](O)CN(CC(C)C)S(=O)(=O)c1ccc2nc(N)sc2c1` [Compound 17, N-{(1S,2R)-3-[(2-amino-benzothiazole-6-sulfonyl)-isobutyl-amino]-1-benzyl-2-hydroxypropyl}-2-(4-aminomethyl-2,6-dimethyl-phenoxy)-acetamide], the EC50 with HIV-1 strain LAI (setting [2]) was 7.08 nM; in the series with mutant HIV strain A, 31.6 nM; in the series on mutant HIV strain B, 6.61 nM; in the series on mutant HIV strain C it was 12.3 nM; in the series on mutant HIV strain D, 23.4 nM; in the series with mutant HIV strain E it was 7.59 nM. Further, the EC50 with mutant HIV strain F was 158 nM. Further, in the series on mutant HIV strain A, the “fold resistance Strain A” value turned out to be 4.5. The “fold resistance Strain B” value with mutant HIV strain B is listed as 0.9. For the same molecule, the “fold resistance Strain C” value in the series on mutant HIV strain C amounted to 1.7. Further, the “fold resistance Strain D” value in the series on mutant HIV strain D is given as 3.3. Further, the “fold resistance Strain E” value in the series with mutant HIV strain E is 1.1. Besides, the “fold resistance Strain F” value with mutant HIV strain F was 22.4. The molecule further gave a half-maximal cytotoxic concentration (CC50) at 5 days in [1] of 63100 nM.

Regarding `CNc1nc2ccc(S(=O)(=O)N(CC(C)C)C[C@@H](O)[C@H](Cc3ccccc3)NC(=O)c3cccc(N)c3C)cc2s1` [Compound 20, 3-amino-N-{(1S,2R)-1-benzyl-2-hydroxy-3-[isobutyl-(2-methylamino-benzothiazole-6-sulfonyl)-amino]-propyl}-2-methyl-benzamide trifluoroacetate], the EC50 was 4.79 nM in the series with HIV-1 strain LAI (Human immunodeficiency virus 1, MT4, wild type HIV-1 strain LAI); 316 nM in the series on mutant HIV strain A; 24.5 nM in the series on mutant HIV strain B; 39.8 nM with mutant HIV strain C; 41.7 nM in the series with mutant HIV strain D; 25.7 nM in the series on mutant HIV strain E. Moreover, the EC50 in the series with mutant HIV strain F is 759 nM. The CC50 at 5 days in [1] was greater than 100000 nM.

For `CNc1nc2ccc(S(=O)(=O)N(CC(C)C)C[C@@H](O)[C@H](Cc3ccccc3)NC(=O)c3ccc(Br)cc3C)cc2s1` [Compound 27, N-{(1S,2R)-1-benzyl-2-hydroxy-3-[isobutyl-(2-methylamino-benzothiazole-6-sulfonyl)-amino]-propyl}-4-bromo-2-methyl-benzamide], the EC50 in the series with HIV-1 strain LAI (setting [2]) was 19.1 nM. Moreover, in the series on mutant HIV strain A, the “fold resistance Strain A” value is 8.3 and the EC50 was 158 nM. Further, in the series on mutant HIV strain B, the “fold resistance Strain B” value was 1.1 and the EC50 was 20.4 nM. Besides, in the series on mutant HIV strain C, the “fold resistance Strain C” value is given as 263.0 and the EC50 was 5010 nM. Moreover, in the series on mutant HIV strain D, the “fold resistance Strain D” value amounted to 4.5 and the EC50 was 85.1 nM. In addition, in the series with mutant HIV strain E, the “fold resistance Strain E” value was 1.6 and the EC50 is 30.9 nM. Also, in the series on mutant HIV strain F, the “fold resistance Strain F” value is given as 33.9 and the EC50 was 646 nM. In series [1], this molecule returned a CC50 at 5 days greater than 100000 nM.

Consider `CNc1nc2ccc(S(=O)(=O)N(CC(C)C)C[C@@H](O)[C@H](Cc3ccccc3)NC(=O)OCc3cnco3)cc2s1` [Compound 28, {(1S,2R)-1-benzyl-2-hydroxy-3-[isobutyl-(2-methylamino-benzothiazole-6-sulfonyl)-amino]-propyl}-carbamic acid oxazol-5-ylmethyl ester], for which the EC50 is 2.51 nM in the series with HIV-1 strain LAI (setting [2]); 19.5 nM in the series on mutant HIV strain A; 5.62 nM in the series with mutant HIV strain B; 6.17 nM in the series on mutant HIV strain C; 37.2 nM in the series on mutant HIV strain D; 7.08 nM with mutant HIV strain E. Moreover, the EC50 in the series on mutant HIV strain F was 77.6 nM. The “fold resistance Strain A” value in the series on mutant HIV strain A stood at 7.8. Besides, in the series with mutant HIV strain B, the “fold resistance Strain B” value is reported as 2.2. For the same molecule, the “fold resistance Strain C” value with mutant HIV strain C is 2.5. Moreover, the “fold resistance Strain D” value in the series on mutant HIV strain D is 14.8. For the same molecule, the “fold resistance Strain E” value with mutant HIV strain E was 2.8. Moreover, the “fold resistance Strain F” value in the series with mutant HIV strain F was 30.9. For the same molecule, the Cmax in “Pharmacokinetics in rats” (setting [3]) was 1000 ng/mL; in “Pharmacokinetics in rats” (setting [4]), 540 ng/mL; in “Pharmacokinetics in rats” (setting [5]) it was 430 ng/mL.

Source of the values: patent US20050267156A1, “Broadspectrum 2-amino-benzothiazole sulfonamide hiv protease inhibitors” (Tibotec Pharmaceuticals Ltd., priority 2002, published 2005).
